{
  "source": "paper PMC7297445",
  "about": "“Pharmacokinetic/Pharmacodynamic Determination and Preclinical Pharmacokinetics of the β-Lactamase Inhibitor ETX1317 and Its Orally Available Prodrug ETX0282” (ACS Infectious Diseases, 2020)",
  "key": {"[1]": {"tested_on": "E. coli ARC2687", "test": "MIC, broth microdilution (CLSI)", "format": "cell-based", "details": "Escherichia coli, ARC2687; combination at 1:2 ratio cefpodoxime:ETX1317, MIC of CPD", "description": "(§1) MICs were determined utilizing a 1:2 ratio of cefpodoxime:ETX1317. […] The isolates utilized in the present study (Table 1) were broadly insensitive to CPD, presumably due to the presence of ESBLs and carbapenemases expressed in these strains. The addition of ETX1317 restored CPD activity to ≤1 μg/mL across all the tested isolates.\n(§2) The MIC of each isolate was determined using the broth microdilution method following CLSI guidelines of document M07-A7 (CLSI M07-A7)."}, "[2]": {"tested_on": "E. coli ARC4419", "test": "MIC, broth microdilution (CLSI)", "format": "cell-based", "details": "Escherichia coli, combination at 1:2 ratio cefpodoxime:ETX1317, MIC of CPD", "description": "as §1, §2"}, "[3]": {"tested_on": "E. coli NMC101", "test": "MIC, broth microdilution (CLSI)", "format": "cell-based", "details": "Escherichia coli, combination at 1:2 ratio cefpodoxime:ETX1317, MIC of CPD", "description": "as §1, §2"}, "[4]": {"tested_on": "K. pneumoniae ARC4420", "test": "MIC, broth microdilution (CLSI)", "format": "cell-based", "details": "Klebsiella pneumoniae, combination at 1:2 ratio cefpodoxime:ETX1317, MIC of CPD", "description": "as §1, §2"}, "[5]": {"tested_on": "K. pneumoniae ARC4486", "test": "MIC, broth microdilution (CLSI)", "format": "cell-based", "details": "Klebsiella pneumoniae, combination at 1:2 ratio cefpodoxime:ETX1317, MIC of CPD", "description": "as §1, §2"}, "[6]": {"tested_on": "K. pneumoniae ARC4488", "test": "MIC, broth microdilution (CLSI)", "format": "cell-based", "details": "Klebsiella pneumoniae, ARC4488; combination at 1:2 ratio cefpodoxime:ETX1317, MIC of CPD", "description": "as §1, §2"}, "[7]": {"tested_on": "K. pneumoniae ARC5118", "test": "MIC, broth microdilution (CLSI)", "format": "cell-based", "details": "Klebsiella pneumoniae, ARC5118; combination at 1:2 ratio cefpodoxime:ETX1317, MIC of CPD", "description": "as §1, §2"}, "[8]": {"tested_on": "Enterobacteriaceae isolates", "test": "Hollow-fiber and chemostat models, strains combined", "format": "cell-based, E. coli, K. pneumoniae", "description": "The PK/PD driver of ETX1317 was assessed in the presence of CPD in both hollow-fiber[28]−[31] and chemostat[32]in vitro infection model systems. In all cases, CPD was administered q12h via a 2 h infusion and eliminated with a 2 h half-life, with the concentration of drug exceeding the MIC (the MIC of CPD in the presence of ETX1317 at a 1:2 ratio) for 50% of the dosing interval for each strain. Representative Emax plots are shown graphically for Escherichia coli ARC2687 in the hollow-fiber model and Klebsiella pneumoniae ARC4420 in the chemostat system (Figure 2). […] This could partially be attributed to the distribution of the concentration ranges utilized for the hollow-fiber infection model (HFIM) where most of the data scatter occurred in the efficacious dose range for lower MIC strains. It is important to note that initial evaluation of K. pneumoniae ARC4420 and ARC5118 was completed in the HFIM but rapid degradation of CPD, presumably through accumulation of β-lactamases in the extra-capillary space of the cartridge precluded a reliable assessment of the PK/PD driver with these strains in this model.[32] […] In both the HFIM and chemostat models the optimum critical threshold of ETX1317 was established through iterative Emax fitting of a range of ETX1317 concentrations from 0.5× to 2× the CPD:ETX1317 MIC value. In the HFIM, %Time > ETX1317 CT of 2× MIC provided the highest correlation to observed activity which appeared to be independent to the apparent intrinsic activity of ETX1317 (as reflected by ETX1317 MICBLI of K. pneumoniae ARC4486 vs ARC4488). […] In both models CPD infused alone mimicked vehicle control as expected with similar growth of +2 to 4 log10 CFU/mL.\nPK/PD-derived exposure targets for BLIs have utilized various approaches for clinical dose setting. The use of a singular critical threshold value independent of MIC has been used for recent BL/BLI combinations such as ceftazidime/avibactam[34] aztreonam/avibactam,[35] but this has been problematic to correlate activity across a broad range of MICs. More recent work with ceftolozane/tazobactam[36] and other BLI combinations[37],[38] considers a critical threshold value that varies proportionally to the MIC value. […] Convergence of the data to a threshold value related to MIC simplifies dose setting and, in this case, appears to be consistent across a broad range of susceptibility (0.125–1 μg/mL).\nDose range and dose fractionation were performed in hollow-fiber infection model (HFIM) and chemostat (one-compartment) in vitro infection model. […] CPD concentrations were targeted to achieve exposure of ∼50%Time > MIC determined in the presence of ETX1317. […] Bacterial burden (CFU/mL) was serially assessed by sampling (500 μL) from the extra-capillary space of the HFIM cartridge at predetermined time points. […]"}, "[9]": {"test": "Stability in liver microsomes", "format": "in vitro ADME", "description": "Based upon the non-clinical PK data, a range of 60–80% bioavailability and a moderate absorption rate of 0.5–1.0 h^–1 have been considered for humans. In consideration of these predicted parameters, mean percent fT > CT of 1 μg/mL (2× MIC of 0.5 μg/mL) estimates for a 500 mg ETX1317 equiv q12h dose of ETX0282 are summarized in Table S3."}},
  "data": [
    {"smiles": "CC1=C[C@@H](C(N)=O)N2C[C@@H]1N(O[C@H](F)C(=O)O)C2=O", "note": "[ETX1317]", "values": [
      {"measurement": "MIC", "setting": "[1]", "value": 0.5, "unit": "µg/mL"},
      {"measurement": "MIC", "setting": "[2]", "value": 0.25, "unit": "µg/mL"},
      {"measurement": "MIC", "setting": "[3]", "value": 1, "unit": "µg/mL"},
      {"measurement": "MIC", "setting": "[4]", "value": 16, "unit": "µg/mL"},
      {"measurement": "MIC", "setting": "[5]", "value": 32, "unit": "µg/mL"},
      {"measurement": "MIC", "setting": "[6]", "value": 0.5, "unit": "µg/mL"},
      {"measurement": "MIC", "setting": "[7]", "value": 32, "unit": "µg/mL"},
      {"measurement": "growth", "setting": "[8]; infused alone q12h to a Cmax of 16 μg/mL, 100%Time > MICBLI", "value": "+0.5 log"},
      {"measurement": "% of dosing interval with unbound concentration > 2× MIC associated with reducing bacterial burden below stasis", "setting": "[8]; with CPD", "value": 50, "unit": "%"},
      {"measurement": "% of dosing interval with concentration > 2× MIC for cidal activity", "setting": "[8]; with CPD 50%Time > MIC, in vitro and in vivo models", "value": 60, "unit": "%"},
      {"measurement": "stability in liver microsomes", "setting": "[9]", "value": "Good stability"}
    ]}
  ]
}
